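In this assay, cells in 96-well plates receive the compound at five concentrations for 48 hours. Endpoints are linearly interpolated between the surrounding concentrations. GI50 = concentration required for 50% inhibition of growth. TGI: total growth inhibition.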

What all share (assay): NCI anticancer screen, dose series, 48 h
Assay [1] deals with A498 renal.
For assay [2], the system named is CCRF-CEM leukemia.
The subject of assay [3] is COLO 205 colon.
Assay [4] deals with HL-60(TB) leukemia.
Assay [5] has as its system HT29 colon.
Assay [6] concerns KM12 colon.
Assay [7] has as its system MOLT-4 leukemia.
In assay [8] the test system is NCI-H226 lung.
Assay [9] deals with OVCAR-4 ovarian.
For assay [10], the system named is SN12C renal.

For `C(=C\c1ccncc1)/c1ccncc1`, the GI50 in assay [1] was 10 µM; in [2], over 100 µM; in assay [3], over 100 µM; in assay [4], over 100 µM; in assay [5], over 100 µM; in assay [6], over 100 µM. The GI50 in assay [7], in assay [8], in assay [9] and in assay [10] was over 100 µM each time. Further, the TGI in assay [1], in [2], in assay [3], in assay [4], in [5] and in assay [6] was over 100 µM each time. For the same compound, the TGI in assay [7], in assay [8], in [9] and in assay [10] was over 100 µM each time.
Regarding `Cc1cc2c3c([n+](C)c4ccc(F)cc4c3c1)-c1cc(F)ccc1N2C`, the GI50 in assay [1] is over 100 µM; in [2], 7.17 µM; in assay [3] it was 3.5 µM; in assay [4], 25.4 µM; in [5] it was 33.2 µM; in [6] it was 4.81 µM. Moreover, the GI50 was 3.28 µM in [7], 3.41 µM in assay [8], 22.1 µM in assay [9] and 2.34 µM in assay [10]. Also, the TGI in [1] was over 100 µM; in assay [2] it was over 100 µM; in assay [3] it was 16.3 µM; in [4] it was over 100 µM; in assay [5], over 100 µM; in assay [6], 44.1 µM. In addition, the TGI in [7] is over 100 µM; in assay [8], 57.3 µM; in assay [9], over 100 µM; in [10], 23.5 µM.
Take `CCOC(=O)/C(C#N)=C\Sc1ccccc1`: the TGI is over 100 µM in assay [2]; 38.4 µM in assay [3]; 45.6 µM in assay [4]; 84.4 µM in [5]; over 100 µM in [6]; 67.3 µM in [7]. The TGI in assay [8] was 43 µM; in [9] it was over 100 µM; in assay [10] it was 31.7 µM.
Consider `C[C@]12CC(C=O)C(=O)C(O)=C1CC[C@@H]1C2CC[C@@]2(C)C1CC[C@]2(C)O` (some centres not stated), for which the TGI stood at 45.9 µM in assay [1]; 38.3 µM in assay [3]; 41.5 µM in [4]; 23.5 µM in [5]; 74.6 µM in assay [6]; 52 µM in assay [7]. The TGI in assay [8] was 39.5 µM; in assay [9], 34.8 µM; in [10], 42.4 µM.
Consider `NC(=O)C(=O)C1C(=O)N(c2ccccc2)N=C1N` (configuration not stated), for which the TGI in assay [3], in assay [4], in assay [5], in assay [6], in [7] and in [8] was over 100 µM each time. Moreover, the TGI in assay [9] and in assay [10] was over 100 µM throughout.
As to `CN(C)CC1C(=O)O[C@H]2[C@H]1CC/C(COC(=O)NCc1ccc(Cn3c(=O)sn(CCCI)c3=O)cc1)=C\CC[C@@]1(C)O[C@@H]21` (some centres not stated), the GI50 in [1] was 7.02 µM; in assay [2], 1.46 µM; in [3] it was 0.833 µM; in [5] it was 0.945 µM; in assay [6], 7.71 µM; in assay [7] it was 0.947 µM. For the same compound, the GI50 in [8] was 7.32 µM; in assay [9], 0.843 µM; in [10], 0.958 µM. Also, the TGI was 13.6 µM in [1]; 7.88 µM in assay [2]; 1.66 µM in assay [3]; 1.84 µM in assay [5]; 15.7 µM in assay [6]; 3.43 µM in assay [7]. Moreover, the results for the TGI in assay [8], in assay [9] and in [10] were 17.6 µM, 1.77 µM and 2.12 µM, respectively.
For the compound `Cc1cc(-c2nc3n(c2/C=N/N=C(N)N)CCS3)c(C)s1`, the GI50 in [1] is 18.5 µM; in assay [2], 12.7 µM; in assay [4], 36.9 µM; in assay [5] it was 17.4 µM; in [6] it was 6.7 µM; in [7] it was 30.1 µM. For the same compound, the GI50 is 18.7 µM in [8], 36.2 µM in assay [9] and 14.9 µM in [10]. Besides, the TGI in assay [1] is 33.6 µM; in [2] it was 37.1 µM; in assay [4], over 100 µM; in assay [5], 37.6 µM; in [6] it was 21.2 µM; in assay [7], over 100 µM. For the same compound, the TGI is 37.9 µM in assay [8], over 100 µM in assay [9] and 28.9 µM in [10].
Consider `COc1ccc(/C=C2\COc3ccc(O)c(O)c3C2=O)cc1OC`, for which the GI50 in assay [1] is 2.47 µM; in [2], 0.377 µM; in assay [3], 2.17 µM; in assay [4], 0.44 µM; in assay [5], 2.12 µM; in assay [7] it was 1.05 µM. The GI50 is 3.91 µM in [8], 1.61 µM in assay [9] and 1.39 µM in [10]. Moreover, the TGI in [1] turned out to be 8.28 µM; in assay [2], 12.1 µM; in assay [3] it was 6.18 µM; in assay [4] it was 5.29 µM; in [5], 5.2 µM; in assay [7], 9.13 µM. Further, the figures for the TGI in [8], in [9] and in assay [10] were 48.1 µM, 13.3 µM and 5.16 µM, respectively.
On to `O=C1c2ccn(CCCNC(CO)(CO)CO)c2C(=O)c2c1c(O)c1ccccc1c2O`, for which the GI50 in assay [2] is 10 µM; in assay [3] it was 13.2 µM; in [5], 15.4 µM; in assay [6] it was 11.1 µM; in [7], 2.54 µM; in assay [8] it was 60.7 µM. Besides, the GI50 in [9] is 29.2 µM; in assay [10] it was 3.16 µM. The TGI in assay [2] is 44 µM; in assay [3] it was 29.4 µM; in assay [5], over 46.3 µM; in [6] it was 25.7 µM; in assay [7], over 37.2 µM; in assay [8] it was over 100 µM. In addition, the TGI was over 51.2 µM in assay [9] and 17.9 µM in [10].
On to `COc1cccc2c(SCC(=O)Nc3ccccc3-c3ccccc3NC(=O)CSc3c4ccccc4nc4c(OC)cccc34)c3ccccc3nc12`, for which the TGI in [2], in [3], in assay [4], in assay [5], in assay [6] and in assay [7] was over 100 µM throughout. The TGI in assay [8], in assay [9] and in [10] was over 100 µM throughout.
Regarding `C=C(C)C1CCC2=CC(CC3(C)OC3C3=CC(C(=O)OC)=C(C1)O3)OC2=O` (configuration not stated), the TGI in [1], in [2], in assay [5], in [6], in [7] and in [8] was over 100 µM in each case. This compound showed a TGI in assay [10] of over 100 µM.
For `COc1cc2c3cc1Oc1c(OC)c(OC)cc4c1[C@@H](Cc1ccc(O)c(c1)Oc1ccc(cc1)C[C@@H]3N(C)CC2)N(C)CC4`, the TGI in assay [1] worked out at 38.5 µM; in assay [2], 45.2 µM; in assay [4], 26.4 µM; in assay [5] it was 24.1 µM; in assay [6] it was 27.7 µM; in assay [7] it was 34.2 µM. For the same compound, the TGI in assay [8] was 44.8 µM; in [10] it was 46.5 µM.
On to `O=[N+]([O-])c1cccc(S(=O)(=O)N/N=C/c2cc(I)cc([N+](=O)[O-])c2O)c1`, for which the TGI in assay [1] was over 100 µM; in assay [2], 47.9 µM; in assay [3], 31.7 µM; in [4] it was 47 µM; in assay [5], 73.6 µM; in assay [6], over 100 µM. Further, the results for the TGI in assay [7], in assay [9] and in assay [10] were 81.5 µM, over 100 µM and 64.6 µM, respectively.
As to `COc1cc2c3c(n([C@@H]4CCOC4)c(=O)c2cc1OC)-c1cc2c(cc1C3=O)OCO2`, the GI50 in assay [2] was under 0.01 µM; in assay [3] it was 0.0193 µM; in [4], under 0.01 µM; in [5], 0.0141 µM; in [7] it was under 0.01 µM; in assay [10] it was under 0.01 µM. In addition, the TGI in assay [2], in assay [3], in [4], in assay [5], in assay [7] and in assay [10] was over 100 µM in each case.
In the case of `Cc1ccc(-c2c3c(nn2-c2ccc(S(=O)(=O)NC(=O)NC4CCCCC4)cc2)-c2ccccc2C3)cc1`, the TGI was 20 µM in [1]; 30.4 µM in assay [3]; 21.4 µM in assay [4]; over 100 µM in assay [5]; 38.2 µM in [6]; 6.14 µM in assay [7]. Also, the TGI in assay [8] stood at 47.3 µM; in assay [9], 39.7 µM; in assay [10], 35.6 µM. Further, the GI50 was 12.1 µM in assay [3]; 5.17 µM in [4]; 24.3 µM in assay [5]; 13 µM in [6]; 1.86 µM in [7]; 20.4 µM in assay [8]. In addition, the GI50 was 18.2 µM in assay [9] and 19.4 µM in [10].
For the compound `CC(C)N1C(C)[C@@H](c2ccccc2)O[P@@]1(=O)CC1=CCCCC1` (some centres not stated), the TGI is over 100 µM in assay [1]; over 100 µM in [2]; over 100 µM in assay [3]; 63.7 µM in [4]; over 100 µM in [5]; over 100 µM in assay [6]. Besides, the TGI in assay [7], in assay [8] and in assay [10] was over 100 µM throughout.
Turning to `COc1ccc2c(CCCc3ccc(Cl)cc3Cl)c3[n+](cc2c1OC)CCc1cc2c(cc1-3)OCO2`, the GI50 was 1.76 µM in assay [1], 0.23 µM in [4], 0.362 µM in assay [6] and 0.337 µM in assay [9]. The TGI was 9 µM in assay [1], 0.838 µM in [4], 1.48 µM in assay [6] and 1.59 µM in assay [9].
For the compound `O=C(NCc1ccco1)C1CCN(S(=O)(=O)c2ccc(Cl)cc2)CC1`, the GI50 in assay [2] was 83.8 µM; in assay [3] it was over 100 µM; in assay [4], over 100 µM; in [5], over 100 µM; in assay [6], over 100 µM; in [7], 74.1 µM. Further, the GI50 in assay [8] was over 100 µM; in assay [9] it was 54.9 µM; in [10], over 100 µM. Also, the TGI in assay [2], in assay [3], in assay [4], in assay [5], in assay [6] and in assay [7] was over 100 µM throughout. Also, the TGI in assay [8], in assay [9] and in assay [10] was over 100 µM in each case.
Turning to `O=NN1CCN=C1c1ccc([N+](=O)[O-])cc1`, the TGI in [3], in [4], in assay [5], in [6], in assay [7] and in assay [8] was over 100 µM in each case. Besides, the TGI in assay [9] and in assay [10] was over 100 µM throughout.
As for `O=C1NC2C3CC(OCc4ccccc4)(OCc4ccccc4)C2OC3O1` (configuration not stated), the TGI in assay [1], in assay [2], in assay [3], in [4], in assay [5] and in [6] was over 50 µM each time. The TGI in [7], in assay [8] and in [10] was over 50 µM throughout.
`Cc1ccc(C)c(NC(=O)C(=O)C2C(=O)N(c3ccccc3)N=C2N)c1` (configuration not stated): the TGI in assay [1], in [2], in assay [4], in [5], in assay [6] and in [7] was over 100 µM throughout. The TGI in assay [8], in assay [9] and in [10] was over 100 µM throughout.
Regarding `Cc1nn(Cc2ccccc2)cc1C(=O)Nc1sc2c(c1C(N)=O)CCC(=O)C2`, the GI50 in assay [1] was 3.97 µM; in assay [2], 0.789 µM; in assay [3], 1.67 µM; in [5], 2.27 µM; in [6], 1.94 µM; in assay [7], 2.62 µM. The GI50 in [8] is 2.29 µM; in [9], 1.47 µM; in assay [10], 2.61 µM. Besides, the TGI in assay [1] came to 28.2 µM; in [2], 17.1 µM; in [3], 3.76 µM; in assay [5], 6.58 µM; in assay [6] it was 4.99 µM; in [7] it was 9.27 µM. Also, the figures for the TGI in assay [8], in [9] and in [10] were 5.7 µM, 3.45 µM and 7.74 µM, respectively.

(Values after PubChem BioAssay (NCI).)
